Assays:
Test in all cases: combination Emax (second highest fraction inhibited in the dose matrix, 72 h); higher = more inhibition; extreme values may be limits of the assay
[1] = tested on: ALL-SIL (T-Lymphoblastic Leukemia)
How it was run: (§1)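 Cell lines in DMEM/F12 or RPMI with 10% FBS were plated in 1536-well plates, held 24 hours at 37°C, 5% CO2, then given two-drug dose matrices for 72 hours (DMSO typically 0.2%). Viability was read by CellTiter-Glo 2.0 luminescence and scaled as inhibition from 0 (vehicle wells) to 1 (blank wells). Combination Emax is the second-highest inhibition in the matrix; Bliss excess is observed combination effect minus expected EA + EB − EA·EB, EA and EB being single-agent effects.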

[2] = tested on: MOG-G-UVW (Low Grade Glioma)
How it was run: as §1

[3] = tested on: HAL-01 (B-Lymphoblastic Leukemia)
How it was run: as §1

[4] = tested on: OE33 (Esophageal Adenocarcinoma)
How it was run: as §1

| SMILES | combination Emax [1] | combination Emax [2] | combination Emax [3] | combination Emax [4] |
| --- | --- | --- | --- | --- |
| Cc1c2c(nn1C)CSCc1cc(n(C)n1)CSc1cc(c3ccccc3c1)OCCCc1c(C(=O)O)n(C)c3c-2c(Cl)ccc13 [AZD5991] + CCN(CCO)CCCOc1ccc2c(Nc3cc(CC(=O)Nc4cccc(F)c4)[nH]n3)ncnc2c1 [AZD2811] (first compound max 1 µM, 7x7, partner max 1 µM) | 1 | 0.696 | 0.468 | 0.139 |
| Cc1c2c(nn1C)CSCc1cc(n(C)n1)CSc1cc(c3ccccc3c1)OCCCc1c(C(=O)O)n(C)c3c-2c(Cl)ccc13 [AZD5991] + CN(C)CCCOc1ccc(-c2ccc3ncc4c(c3c2)n(C2CCOCC2)c(=O)n4C)cn1 [AZD0156] (first compound max 1 µM, 7x7, partner max 1 µM) | 0.986 | 0.247 | 0.686 | 0.156 |
| Cc1c2c(nn1C)CSCc1cc(n(C)n1)CSc1cc(c3ccccc3c1)OCCCc1c(C(=O)O)n(C)c3c-2c(Cl)ccc13 [AZD5991] + C[C@@H]1COCCN1C2=NC(=NC(=C2)C3(CC3)[S@](=N)(=O)C)C4=C5C=CNC5=NC=C4 [AZD6738] (first compound max 1 µM, 7x7, partner max 10 µM) | 1 | 0.756 | 0.987 | 0.784 |
| Cc1c2c(nn1C)CSCc1cc(n(C)n1)CSc1cc(c3ccccc3c1)OCCCc1c(C(=O)O)n(C)c3c-2c(Cl)ccc13 [AZD5991] + Cc1cc2ncnn2cc1Nc1ncc2c(n1)n(C1CCOCC1)c(=O)n2C [AZD7648] (first compound max 1 µM, 7x7, partner max 10 µM) | 1 | 0.271 | 0.704 | 0.237 |
| C[C@@H]1COCCN1c1cc(C2([S@](C)(=N)=O)CC2)nc(-c2ccnc3[nH]ccc23)n1 [AZD6738] + O=C(c1cc(Cc2n[nH]c(=O)c3ccccc23)ccc1F)N1CCN(C(=O)C2CC2)CC1 [Olaparib] (first compound max 10 µM, 7x7, partner max 10 µM) | 0.95 | 0.847 | 0.982 | 0.721 |
| NC1(C(=O)N[C@@H](CCO)c2ccc(Cl)cc2)CCN(c2ncnc3[nH]ccc23)CC1 [Capivasertib] + CC(=O)c1c(C)c2cnc(Nc3ccc(N4CCNCC4)cn3)nc2n(C2CCCC2)c1=O [Palbociclib] (first compound max 10 µM, 7x7, partner max 10 µM) | 0.46 | 0.727 | 0.69 | 0.259 |
| NC1(C(=O)N[C@@H](CCO)c2ccc(Cl)cc2)CCN(c2ncnc3[nH]ccc23)CC1 [Capivasertib] + CC(C)n1c(=O)n(C)c2cnc3cc(F)c(-c4ccc(OCCCN5CCCCC5)nc4)cc3c21 [AZD1390] (first compound max 10 µM, 7x7, partner max 0.3 µM) | 0.389 | 0.576 | 0.492 | 0.185 |
| NC1(C(=O)N[C@@H](CCO)c2ccc(Cl)cc2)CCN(c2ncnc3[nH]ccc23)CC1 [Capivasertib] + CCN(CCO)CCCOc1ccc2c(Nc3cc(CC(=O)Nc4cccc(F)c4)[nH]n3)ncnc2c1 [AZD2811] (first compound max 10 µM, 7x7, partner max 1 µM) | 0.941 | 0.733 | 0.464 | 0.202 |
| NC1(C(=O)N[C@@H](CCO)c2ccc(Cl)cc2)CCN(c2ncnc3[nH]ccc23)CC1 [Capivasertib] + COc1nnc2ccc(N3CCC(c4ccc(OCCN5CCN(C)C(=O)[C@H]5C)cc4)CC3)nn12 [AZD5153] (first compound max 10 µM, 7x7, partner max 1 µM) | 0.841 | 0.835 | 0.719 | 0.319 |
| NC1(C(=O)N[C@@H](CCO)c2ccc(Cl)cc2)CCN(c2ncnc3[nH]ccc23)CC1 [Capivasertib] + C[C@@H]1COCCN1C2=NC(=NC(=C2)C3(CC3)[S@](=N)(=O)C)C4=C5C=CNC5=NC=C4 [AZD6738] (first compound max 10 µM, 7x7, partner max 10 µM) | 0.932 | 0.796 | 0.97 | 0.748 |
| NC1(C(=O)N[C@@H](CCO)c2ccc(Cl)cc2)CCN(c2ncnc3[nH]ccc23)CC1 [Capivasertib] + Cn1cnc2c(F)c(Nc3ccc(Br)cc3Cl)c(C(=O)NOCCO)cc21 [Selumetinib] (first compound max 10 µM, 7x7, partner max 10 µM) | 0.513 | 0.714 | 0.554 | 0.423 |
| COc1cccc2c1C(=O)c1c(O)c3c(c(O)c1C2=O)C[C@@](O)(C(=O)CO)C[C@@H]3O[C@H]1C[C@H](N)[C@H](O)[C@H](C)O1 [Doxorubicin] + Cc1cc2ncnn2cc1Nc1ncc2c(n1)n(C1CCOCC1)c(=O)n2C [AZD7648] (first compound max 1 µM, 7x7, partner max 10 µM) | 0.983 | 0.867 | 0.986 | 0.526 |
| CS(=O)(=O)CCNCc1ccc(-c2ccc3ncnc(Nc4ccc(OCc5cccc(F)c5)c(Cl)c4)c3c2)o1 [Lapatinib] + C[C@@H](Oc1cc(-c2cnn(C3CCNCC3)c2)cnc1N)c1c(Cl)ccc(F)c1Cl [Crizotinib] (first compound max 10 µM, 7x7, partner max 10 µM) | 1 | 0.842 | 0.955 | 0.909 |
| CC(=O)c1c(C)c2cnc(Nc3ccc(N4CCNCC4)cn3)nc2n(C2CCCC2)c1=O [Palbociclib] + CC1(C)CCC(CN2CCN(c3ccc(C(=O)NS(=O)(=O)c4ccc(NCC5CCOCC5)c([N+](=O)[O-])c4)c(Oc4cnc5[nH]ccc5c4)c3)CC2)=C(c2ccc(Cl)cc2)C1 [Venetoclax] (first compound max 10 µM, 7x7, partner max 1 µM) | 0.76 | 0.497 | 0.99 | 0.121 |
| CC(=O)c1c(C)c2cnc(Nc3ccc(N4CCNCC4)cn3)nc2n(C2CCCC2)c1=O [Palbociclib] + Cc1c2c(nn1C)CSCc1cc(n(C)n1)CSc1cc(c3ccccc3c1)OCCCc1c(C(=O)O)n(C)c3c-2c(Cl)ccc13 [AZD5991] (first compound max 10 µM, 7x7, partner max 1 µM) | 0.446 | 0.526 | 0.935 | 0.275 |
| CC(=O)c1c(C)c2cnc(Nc3ccc(N4CCNCC4)cn3)nc2n(C2CCCC2)c1=O [Palbociclib] + Cn1cnc2c(F)c(Nc3ccc(Br)cc3Cl)c(C(=O)NOCCO)cc21 [Selumetinib] (first compound max 10 µM, 7x7, partner max 10 µM) | 0.38 | 0.523 | 0.928 | 0.259 |
| COc1cccc(OCCCN)c1-c1cc(Nc2cnc(C#N)cn2)n[nH]1 [Prexasertib] + C=CCn1c(=O)c2cnc(Nc3ccc(N4CCN(C)CC4)cc3)nc2n1-c1cccc(C(C)(C)O)n1 [AZD1775] (first compound max 1 µM, partner max 1 µM) | 1 | 0.943 | 1 | 0.829 |
| COc1cccc(OCCCN)c1-c1cc(Nc2cnc(C#N)cn2)n[nH]1 [Prexasertib] + CCc1c2c(nc3ccc(O)cc13)-c1cc3c(c(=O)n1C2)COC(=O)[C@]3(O)CC [SN-38] (first compound max 1 µM, 7x7, partner max 0.3 µM) | 1 | 0.987 | 1 | 0.811 |
| COc1cccc(OCCCN)c1-c1cc(Nc2cnc(C#N)cn2)n[nH]1 [Prexasertib] + CN(C)CCCOc1ccc(-c2ccc3ncc4c(c3c2)n(C2CCOCC2)c(=O)n4C)cn1 [AZD0156] (first compound max 1 µM, 7x7, partner max 1 µM) | 0.958 | 0.88 | 1 | 0.826 |
| COc1cccc(OCCCN)c1-c1cc(Nc2cnc(C#N)cn2)n[nH]1 [Prexasertib] + C[C@@H]1COCCN1C2=NC(=NC(=C2)C3(CC3)[S@](=N)(=O)C)C4=C5C=CNC5=NC=C4 [AZD6738] (first compound max 1 µM, 7x7, partner max 10 µM) | 0.993 | 0.917 | 1 | 0.858 |
| COc1cccc(OCCCN)c1-c1cc(Nc2cnc(C#N)cn2)n[nH]1 [Prexasertib] + Cc1cc2ncnn2cc1Nc1ncc2c(n1)n(C1CCOCC1)c(=O)n2C [AZD7648] (first compound max 1 µM, 7x7, partner max 10 µM) | 0.983 | 0.904 | 1 | 0.823 |
